Experiment: xn = mol fraction of the nth substance listed
Conditions: 101 kPa, Liquid; for speed of sound: Sing-around technique in a fixed-path interferometer

CCOC(C)(C)C [2-ethoxy-2-methylpropane] + Cc1cccc(C)c1
Conditions	mass density [kg/m3]	speed of sound [m/s]
288.15 K, x1 = 0.05	862.187	1345.6
288.15 K, x1 = 0.099	856.037	1332.2
288.15 K, x1 = 0.2	843.698	1303.2
288.15 K, x1 = 0.3	831.159	1274.6
288.15 K, x1 = 0.4	818.865	1245.5
288.15 K, x1 = 0.497	806.713	1217.2
288.15 K, x1 = 0.598	794.326	1188.6
288.15 K, x1 = 0.698	782.295	1161.7
288.15 K, x1 = 0.8	770.134	1133.6
288.15 K, x1 = 0.898	757.936	1106.8
288.15 K, x1 = 0.95	751.668	1092.8
288.15 K, x1 = 1	744.955	1076.4
290.65 K, x1 = 0.05	860.034	1334.7
290.65 K, x1 = 0.099	853.866	1321.5
290.65 K, x1 = 0.2	841.488	1292.6
290.65 K, x1 = 0.3	828.907	1263.8
290.65 K, x1 = 0.4	816.576	1234.8
290.65 K, x1 = 0.497	804.386	1206.4
290.65 K, x1 = 0.598	791.955	1177.8
290.65 K, x1 = 0.698	779.883	1150.8
290.65 K, x1 = 0.8	767.68	1122.5
290.65 K, x1 = 0.898	755.44	1096
290.65 K, x1 = 0.95	749.148	1081.9
290.65 K, x1 = 1	742.482	1065.1
293.15 K, x1 = 0.05	857.873	1324.1
293.15 K, x1 = 0.099	851.684	1310.9
293.15 K, x1 = 0.2	839.267	1282
293.15 K, x1 = 0.3	826.644	1253.1
293.15 K, x1 = 0.4	814.272	1224.1
293.15 K, x1 = 0.497	802.042	1195.6
293.15 K, x1 = 0.598	789.571	1167
293.15 K, x1 = 0.698	777.456	1140
293.15 K, x1 = 0.8	765.209	1111.5
293.15 K, x1 = 0.898	752.927	1085.2
293.15 K, x1 = 0.95	746.612	1070.8
293.15 K, x1 = 1	739.947	1053.7
295.65 K, x1 = 0.05	855.708	1313.4
295.65 K, x1 = 0.099	849.502	1300.3
295.65 K, x1 = 0.2	837.044	1271.3
295.65 K, x1 = 0.3	824.379	1242.3
295.65 K, x1 = 0.4	811.966	1213.3
295.65 K, x1 = 0.497	799.693	1184.7
295.65 K, x1 = 0.598	787.18	1156
295.65 K, x1 = 0.698	775.026	1129.1
295.65 K, x1 = 0.8	762.735	1100.5
295.65 K, x1 = 0.898	750.406	1074.1
295.65 K, x1 = 0.95	744.068	1059.8
295.65 K, x1 = 1	737.374	1042.2
298.15 K, x1 = 0.05	853.541	1302.9
298.15 K, x1 = 0.099	847.315	1289.8
298.15 K, x1 = 0.2	834.815	1260.8
298.15 K, x1 = 0.3	822.108	1231.6
298.15 K, x1 = 0.4	809.656	1202.6
298.15 K, x1 = 0.497	797.343	1173.8
298.15 K, x1 = 0.598	784.785	1145.1
298.15 K, x1 = 0.698	772.587	1118.2
298.15 K, x1 = 0.8	760.251	1089.5
298.15 K, x1 = 0.898	747.878	1063
298.15 K, x1 = 0.95	741.515	1048.7
298.15 K, x1 = 1	734.806	1031
300.65 K, x1 = 0.05	851.372	1292.5
300.65 K, x1 = 0.099	845.128	1279.3
300.65 K, x1 = 0.2	832.584	1250.2
300.65 K, x1 = 0.3	819.837	1221
300.65 K, x1 = 0.4	807.341	1191.8
300.65 K, x1 = 0.497	794.987	1163.1
300.65 K, x1 = 0.598	782.385	1134.2
300.65 K, x1 = 0.698	770.145	1107.3
300.65 K, x1 = 0.8	757.762	1078.4
300.65 K, x1 = 0.898	745.343	1051.9
300.65 K, x1 = 0.95	738.954	1037.6
300.65 K, x1 = 1	732.225	1019.8
303.15 K, x1 = 0.05	849.201	1282.1
303.15 K, x1 = 0.099	842.934	1268.9
303.15 K, x1 = 0.2	830.351	1239.8
303.15 K, x1 = 0.3	817.559	1210.3
303.15 K, x1 = 0.4	805.022	1181.2
303.15 K, x1 = 0.497	792.628	1152.3
303.15 K, x1 = 0.598	779.979	1123.3
303.15 K, x1 = 0.698	767.695	1096.3
303.15 K, x1 = 0.8	755.266	1067.5
303.15 K, x1 = 0.898	742.8	1040.8
303.15 K, x1 = 0.95	736.382	1026.5
303.15 K, x1 = 1	729.647	1008.6
305.65 K, x1 = 0.05	–	1271.7
305.65 K, x1 = 0.099	–	1258.6
305.65 K, x1 = 0.2	–	1229.3
305.65 K, x1 = 0.3	–	1199.8
305.65 K, x1 = 0.4	–	1170.5
305.65 K, x1 = 0.497	–	1141.6
305.65 K, x1 = 0.598	–	1112.5
305.65 K, x1 = 0.698	–	1085.4
305.65 K, x1 = 0.8	–	1056.5
305.65 K, x1 = 0.898	–	1029.8
305.65 K, x1 = 0.95	–	1015.3
305.65 K, x1 = 1	–	997.52
